Assay results published in ChEMBL document CHEMBL1125704, “Novel time-dependent inhibitors of human placental aromatase” (J Med Chem, 1991).

These compounds were tested against T1, Aromatase (Homo sapiens, UniProt P11511) (assay: Inhibition of binding to human Placental Cytochrome P450 19A1).
T1 sequence (P11511 whole entry): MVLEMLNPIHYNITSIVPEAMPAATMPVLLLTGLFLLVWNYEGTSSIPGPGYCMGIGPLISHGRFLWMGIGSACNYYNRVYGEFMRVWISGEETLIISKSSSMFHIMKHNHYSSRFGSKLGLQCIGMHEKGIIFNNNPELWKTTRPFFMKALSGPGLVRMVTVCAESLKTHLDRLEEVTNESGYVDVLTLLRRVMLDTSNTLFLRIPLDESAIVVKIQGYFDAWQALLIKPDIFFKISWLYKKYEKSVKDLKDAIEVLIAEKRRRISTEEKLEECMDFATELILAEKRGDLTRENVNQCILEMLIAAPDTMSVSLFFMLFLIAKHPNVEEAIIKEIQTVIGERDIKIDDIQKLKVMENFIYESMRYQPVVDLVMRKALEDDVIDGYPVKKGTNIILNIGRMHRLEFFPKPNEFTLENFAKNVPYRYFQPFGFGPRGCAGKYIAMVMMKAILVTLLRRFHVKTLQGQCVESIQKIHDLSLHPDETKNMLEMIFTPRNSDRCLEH
In the case of `C[C@]12CCC3C(CCC4=CC(=O)[C@H]5CC[C@]43C5)C1CCC2=O` (some centres undefined), the Ki is reported as 70 nM.
With `C[C@]12CCC3C(CCC4=CC(=O)[C@H]5C[C@H](O)[C@]43C5)C1CCC2=O` (single isomer, unassigned) the Ki was 926 nM.
`C[C@]12CCC3C(CCC4=CC(=O)[C@H]5C[C@@H](O)[C@]43C5)C1CCC2=O` (single isomer, unassigned) gave a Ki of 870 nM.
With `C[C@]12CCC3C(CCC4=CC(=O)CC[C@@]43C(O)CBr)C1CCC2=O` (single isomer, unassigned; 11a) the Ki was 27 nM.
